Drawing on PubChem BioAssay (NCI), this text covers GI50 and TGI for ten compounds.

Structures are written as SMILES. Several values for one entry are separate records, joined by “and”; a condition that tells them apart may be missing. Identical values can stand only once.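 Dose response: 5 concentrations. Exposure: 48 h. Format: 96-well plates. Endpoint: linear interpolation; highest concentration if not reached. GI50 = concentration required for 50% inhibition of growth. TGI: concentration producing complete growth inhibition.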 Bounds are passed on as bounds.

What all share (test): inhibition of tumour cell growth, NCI panel, 48 h
In assay [1] the test system is CAKI-1 renal.
The subject of assay [2] is NCI-H226 lung.
Assay [3] concerns NCI-H23 lung.
For assay [4], the system named is A498 renal.
Assay [5] relates to SF-268 CNS.
The test system of assay [6] is HCT-15 colon.
Assay [7] relates to RXF 393 renal.
In assay [8] the test system is TK-10 renal.
Assay [9] concerns SR leukemia.
Assay [10] relates to M14 melanoma.

Take `CCCCS(=N)(=O)CC[C@H](N)C(=O)O` (stereo not given in full): the GI50 was greater than 1080 µM in [1]; greater than 10000 µM in [2]; greater than 10000 µM in assay [3]; greater than 10000 µM in assay [4]; greater than 10000 µM in [5]; greater than 6960 µM in assay [6]. Besides, the GI50 in assay [7] is greater than 10000 µM; in assay [8], greater than 10000 µM; in [9] it was 3980 µM; in assay [10], greater than 5620 µM. Besides, the TGI in assay [1] was 5000 µM and > 1330 µM; in assay [2], greater than 10000 µM; in [3], 5000 µM and > 10000 µM; in [4], 5000 µM and > 10000 µM; in [5] it was 5000 µM and > 10000 µM; in [6], 4940 µM and > 10000 µM. The TGI in assay [7] was greater than 10000 µM; in assay [8], greater than 10000 µM; in [9], 5000 µM and > 10000 µM; in [10], greater than 5620 µM.
Regarding `OCC1OC(N2C=C(c3nc4ccccc4s3)C3C=CC=CC32)C(O)C1O` (stereo not given), the GI50 in [1] was 9.32 µM; in assay [2], 8.81 µM; in assay [3], 8.89 µM; in assay [4], 7.91 µM; in assay [5], 8.11 µM; in [6], 7.92 µM. The GI50 in assay [7] is 10.6 µM; in assay [8], 6.65 µM; in assay [9], 2.34 µM; in assay [10], 9.6 µM. Also, the TGI was 22 µM in [1]; 25.5 µM in [2]; 28.7 µM in assay [3]; 17.7 µM in assay [4]; greater than 50 µM in assay [5]; 22 µM in assay [6]. Further, the TGI is 25.9 µM in assay [7], 21.9 µM in assay [8], greater than 50 µM in assay [9] and 22.4 µM in assay [10].
In the case of `CC[C@@]1(OC(=O)CCC(=O)O)C(=O)OCc2c1cc1n(c2=O)Cc2cc3ccccc3nc2-1`, the TGI was 0.612 µM in assay [1]; 3.13 µM in assay [2]; 0.838 µM in assay [3]; 1.27 µM in assay [4]; greater than 60.9 µM in assay [5]; 11.7 µM in assay [6]. Moreover, the TGI in assay [7] amounted to 1.53 µM; in assay [8], 57.5 µM; in assay [9], 0.03 µM; in [10], 1.41 µM.
For `Nc1ncnc2c1ncn2C1OC(C(=O)O)C(O)C1O` (stereo not given), the TGI in [1], in assay [2], in [3], in assay [4], in [5] and in assay [6] was greater than 100 µM in each case. Besides, the TGI in [7], in [8], in assay [9] and in [10] was greater than 100 µM each time.
For the compound `c1ccc(COc2ccc3[nH]c4c(ncc5[nH]c6ccccc6c54)c3c2)cc1`, the TGI in [1] came out at 47.5 µM; in assay [2] it was 30.9 µM; in assay [3], 35.3 µM; in assay [4] it was 41.6 µM; in [5] it was 34.6 µM; in [6], 14.9 µM. The TGI in assay [7] was found to be 23.3 µM; in [8] it was 40.8 µM; in assay [9] it was 30.3 µM; in assay [10], 26.7 µM.
Take `Cc1ccc2c(c1)sc(-c1ccc(N(C)C)cc1)[n+]2C`: the GI50 in [1] was 8.84 µM; in assay [2] it was 3.26 µM; in assay [3], 0.987 µM; in assay [4], 0.785 µM; in assay [5] it was 2.44 µM; in [6], 18.8 µM. The GI50 is 9.16 µM in assay [7], 1.99 µM in assay [8], 0.125 µM in assay [9] and 1.79 µM in assay [10]. Also, the TGI in assay [1] was greater than 56.2 µM; in assay [2], greater than 100 µM; in assay [3], greater than 48.8 µM; in [4], 8.16 µM; in assay [5] it was 24.9 µM; in assay [6], greater than 100 µM. Moreover, the TGI was greater than 47.4 µM in [7], 11.2 µM in assay [8], 19.4 µM in [9] and greater than 38 µM in assay [10].
`Cn1cnc([N+](=O)[O-])c1Sc1ncnc2nc[nH]c12`: the GI50 was 2.6 µM and 5.07 µM in assay [1]; 7.17 µM and > 27.2 µM in assay [2]; 4.01 µM and 13.3 µM in [3]; 8.55 µM and 26.1 µM in assay [4]; 5.32 µM and 6.48 µM in assay [5]; 14.2 µM and 19.6 µM in assay [6]. Also, the GI50 in assay [7] is 35.2 µM; in assay [8], 3.58 µM and 3.93 µM; in [9] it was 37.9 µM and 4.04 µM; in assay [10] it was 0.755 µM and 2.77 µM. The TGI in [1] was greater than 100 µM; in assay [2] it was greater than 100 µM; in assay [3], greater than 100 µM; in assay [4] it was 82 µM and > 100 µM; in assay [5], greater than 100 µM; in assay [6], greater than 100 µM. In addition, the TGI is greater than 100 µM in assay [7]; greater than 100 µM in [8]; greater than 100 µM in assay [9]; 60.5 µM and > 100 µM in [10].
In the case of `O=[N+]([O-])/C=C\c1ccc2c(c1)OCO2`, the GI50 in assay [1] was 1.69 µM; in assay [2], 13.8 µM; in assay [3] it was 2.52 µM; in assay [4] it was 1.37 µM; in assay [5] it was 10.5 µM; in assay [6], 2.46 µM. For the same compound, the GI50 in assay [7] was 1.66 µM; in [8], 3.16 µM; in assay [9] it was 2.73 µM; in assay [10], 2.08 µM. The TGI in [1] was found to be 7.36 µM; in [2], 53 µM; in assay [3], 7.38 µM; in assay [4], 8.14 µM; in assay [5], 22.4 µM; in [6], 6.68 µM. Also, the TGI came out at 3.1 µM in assay [7], 10 µM in assay [8], 8.06 µM in assay [9] and 4.77 µM in assay [10].
In the case of `CCC(=O)N1C/C(=C/c2ccc(OC)cc2)C(=O)/C(=C/c2ccc(OC)cc2)C1`, the GI50 in assay [1] was 2.74 µM; in [2] it was 22.3 µM; in [3] it was 2.26 µM; in [4], 1.92 µM; in assay [5], 2.31 µM; in assay [6] it was 2.03 µM. Besides, the GI50 in [7] was 1.72 µM; in assay [8], 2.72 µM; in [9], 0.382 µM; in assay [10], 1.92 µM. For the same compound, the TGI in [1] is 9.73 µM; in assay [2], greater than 100 µM; in [3] it was 5.39 µM; in [4], 3.51 µM; in assay [5], 5.71 µM; in assay [6], 5.31 µM. In addition, the TGI in assay [7] is 3.17 µM; in assay [8], 6.54 µM; in [9], greater than 100 µM; in assay [10], 3.96 µM.
Take `Cc1ccc(S(=O)(=O)NCCN2c3nc4ccccc4cc3Sc3cc4ccccc4nc32)cc1`: the GI50 in assay [1] is 13.8 µM; in assay [2], 64.2 µM; in assay [3] it was 13 µM; in assay [4], 24.4 µM; in [5], 11.4 µM; in [6], greater than 100 µM. Further, the GI50 was 22.1 µM in [7], 28.6 µM in [8], greater than 100 µM in [9] and greater than 100 µM in assay [10]. The TGI in assay [1] was greater than 71.7 µM; in assay [2], greater than 100 µM; in [3], greater than 100 µM; in assay [4] it was greater than 84.9 µM; in [5] it was greater than 100 µM; in assay [6], greater than 100 µM. For the same compound, the TGI in assay [7] was 66.3 µM; in assay [8] it was greater than 100 µM; in [9], greater than 100 µM; in assay [10], greater than 100 µM.
